In US11242555B2, “Molecular sensors and uses thereof” (New York University, priority 2018, dated 2022):
“Also recorded” adds a separate entry of the source. Starred links: 1 amine or outer side, 2 acyl side, 3 side chain; linkers in the order of their positions; H or OH if unused. Positions of bridges follow the written chain, without caps; N, C: chain ends. Non-standard residues stand in square brackets, D forms with d. Residues, ends and D or L forms follow the SMILES beside them. Chains are numbered I, II in the order given. Actinocin(9to1) = Cc1c2oc3c(C)ccc(C(=O)[*:1])c3nc-2c(C(=O)[*:2])c(N)c1=O; NMeV = CN[C@H](C(=O)O)C(C)C; Sar = CNCC(=O)O

Columns and labels:
[1] = system: double-stranded oligo probe (DNA); test: High-throughput screen of a compound library with the linear oligo probe (FRET ratio, 384 well plate); format: binding
Method: A library of compounds was mixed with the oligo probe in 384 well plate format. (A) The fluorescence spectra of the probe were recorded on a plate reader as in FIG. 21 and the FRET ratio (Cy5/Cy3 intensity) was calculated. […] (B) A library consisting of 1600 compounds from FDA and internationally approved drugs was screened to detect potential intercalators that can be drug repositioning targets.
The molecular sensors were used in vitro according to the following: 1) The sensors were diluted in a NaCl solution (e.g., in a 50-100 mM NaCl solution) and 0.2% BSA solution to a concentration of 1 μM. This can be adjusted depending on the sensitivity of the fluorescence measurement device. 2) The fluorescence spectrum was measured using a fluorescence spectrophotometer, a plate reader, or any other ad-hoc means. […] 3) The molecular species was added to be characterized for DNA binding properties or to be tested for intercalating or groove binding ability. The appropriate sensor is used (e.g., a linear or flexible molecular sensor). The fluorescence spectrum was measured again using the same methods and settings. 4) The FRET ratio was compared for both the sensor alone and sensor plus tested molecule. The FRET ratio is calculated by dividing the peak intensity of the acceptor fluorescence by that of the donor fluorescence.

[2] = system: double-stranded oligo probe (DNA); test: Linear oligo probe titration with intercalating drug in solution (FRET ratio, Hill plot binding constant); details: for binding constant: Hill plot fit of fraction of intercalated bases vs drug concentration, all binding sites assumed occupied at saturation
DNA within living cells = test: Linear probe in living cells transfected with the oligo probe (confocal FRET ratio); format: cell-based; details: for FRET ratio (Cy5:Cy3) in cells in presence of intercalating drug vs no drug: cells transfected with linear probe, drug in culture medium
Method: Cells transfected with the oligo probe were imaged by exciting the donor (Cy3) and imaging the fluorescence of Cy3 (A) and Cy5 (acceptor) (B) in the appropriate spectral ranges using a confocal microscope. (C) The false-colored images can be merged, therefore producing a false color image where orange indicates a large FRET ratio. […] (G) The drop in the FRET ratio is measured by calculating the ratio of the Cy5 signal to that of Cy3 within the nuclei of cells in presence of the three intercalating compounds.
The molecular sensors were used in cell culture according to the following: 1) the desired cells were prepared in glass-bottom culture dishes or wells to a confluence lower than 70%. 2) Two hours before imaging, a desired transfection protocol (e.g., liposome transfection), and the like) is used with either sensor depending on the desired mode of DNA binding to be investigated. 3) After the transfection period, the culture was washed from excess sensors. 4) The culture disk was transferred to the confocal microscope for imaging. […] 6) If using filter cubes use the appropriate cubes to image donor fluorescence in one channel and acceptor fluorescence in the other. If using spectral imaging set the imaging wavelength windows for the two fluorophores. 7) Cells were identified that have been successfully transfected as indicated by fluorescence throughout the cell. 8) Images were acquired in both channels. 9) Software to calculate the ratio of acceptor/donor fluorescence (the FRET ratio) for the desired regions within the imaged cells was used. 10) The desired drug to be tested was added. 11) The cells were imaged again and the FRET ratio was calculated as a function of the desired variable: e.g. time, drug concentration, region within the cell, etc. A change in the FRET ratio indicates DNA drug binding.
Using laser scanning confocal microscopy the cells are imaged by exciting the donor (Cy3) and imaging the fluorescence of Cy3 and Cy5 (acceptor) in the appropriate spectral ranges (images A, B, D, E). The false-colored images can be merged therefore producing a false color image where green indicates a small FRET ratio and red a large FRET ratio and intermediate values being yellow/orange (images C and F). […] The FRET ratio can be measured from the ratio of Cy5:Cy3 intensities.
Cells were transfected with the sensor and imaged in culture medium as described in FIG. 17. […] The average FRET ratio measured as Cy5:Cy3 intensities in the images is plotted as a function of time in the lower right panel.

[3] = system: nuclei of cells in culture; test: Flexible sensor FRET ratio within nuclei of cells treated with chromatin-disrupting drugs (macromolecular crowding); format: cell-based; details: flexible sensor within nuclei of cells in culture medium
Method: The flexible molecular sensors reports on the local macromolecular crowding within living cells in culture (FIG. 5). The sensor was introduced into cells by liposome transfection. After a short incubation period of 45 minutes, the cells plated on an imaging well were washed and imaged using scanning laser confocal microscopy. The cells were then imaged by exciting the donor (Cy3) and imaging the fluorescence of Cy3 and Cy5 (acceptor) in the appropriate spectral ranges (top two images). The false-colored images can be merged therefore producing another false color image where green (FIG. 5—top left) indicates a small FRET ratio and red (FIG. 5—top right) a large FRET ratio an intermediate values being yellow/orange (FIG. 5—bottom left). A quantitative measurement of the FRET ratio is represented as a gray scale image (FIG. 5—bottom right) where each pixel is in the ratio of the intensity in the Cy5 channel divided by that in the Cy3 channel. Local variations indicate local differences in the degree of macromolecular crowding.
Drugs that disrupt chromatin compaction result in a more crowded nucleus (FIG. 11). The FRET ratio was measured within the nuclei of cells in culture medium in the absence and presence of drugs that disrupt chromatin structure. Three drugs that disrupt chromatin in different ways were used: trichostatin A (TSA) and tubacin both of which inhibit histone deacetylases, and etoposide which forms a complex with DNA and topisomerase II resulting in the accumulation of DNA breaks.

| Structure (SMILES) | binding constant [2] | FRET ratio (Cy5:Cy3) in cells in presence of intercalating drug vs no drug (DNA within living cells) | FRET ratio in nuclei of treated cells compared to untreated cells [3] | further results |
| --- | --- | --- | --- | --- |
| Cc1c2oc3c(C)ccc(C(=O)N[C@@H]4C(=O)N[C@H](C(C)C)C(=O)N5CCC[C@H]5C(=O)N(C)CC(=O)N(C)[C@@H](C(C)C)C(=O)O[C@@H]4C)c3nc-2c(C(=O)N[C@@H]2C(=O)N[C@H](C(C)C)C(=O)N3CCC[C@H]3C(=O)N(C)CC(=O)N(C)[C@@H](C(C)C)C(=O)O[C@@H]2C)c(N)c1=O [DACTINOMYCIN] (I: T[dV]P[Sar][NMeV] / II: T[dV]P[Sar][NMeV]; ester I:1-I:C, II:1-II:C; linker I:N-II:N via Actinocin(9to1)) | 2e+06 M⁻¹ | drop if the FRET efficiency upon intercalation within the cell | – | FRET ratio [1]: 0.4765; FRET ratio as a function of intercalator concentration ([2]; linear probe in solution, excited at 500 nm, peak acceptor/peak donor): decreases; FRET ratio (Cy5:Cy3) in cells in presence of intercalating drug vs no drug (DNA within living cells; listed as Actinomycin D): decrease in the FRET ratio; also recorded: clear difference in FRED ratio; time-course of drug entry into the cell (drop in FRET ratio within the nucleus) (DNA within living cells; time-lapse after drug was introduced into the culture medium): from orange (high FRET) to green (low FRET) |
| CS[C@H]1SC[C@H]2C(=O)N(C)[C@@H](C(C)C)C(=O)OC[C@@H](NC(=O)c3cnc4ccccc4n3)C(=O)N[C@@H](C)C(=O)N(C)[C@@H]1C(=O)N(C)[C@@H](C(C)C)C(=O)OC[C@@H](NC(=O)c1cnc3ccccc3n1)C(=O)N[C@@H](C)C(=O)N2C [Echinomycin] | 400000 M⁻¹ | clear difference in FRED ratio | – | – |
| c1cnc2c(c1)ccc1cccnc12 [Phenanthroline] | 710 M⁻¹ | clear difference in FRED ratio | – | – |
| COc1cc([C@@H]2c3cc4c(cc3[C@@H](O[C@@H]3O[C@@H]5CO[C@@H](C)O[C@H]5[C@H](O)[C@H]3O)[C@H]3COC(=O)[C@H]23)OCO4)cc(OC)c1O [etoposide] | – | – | larger FRET ratio | – |
| CC(/C=C/C(=O)NO)=C\[C@@H](C)C(=O)c1ccc(N(C)C)cc1 [trichostatin A] | – | – | larger FRET ratio | – |
| O=C(CCCCCCC(=O)Nc1ccc([C@H]2O[C@@H](CSc3nc(-c4ccccc4)c(-c4ccccc4)o3)C[C@@H](c3ccc(CO)cc3)O2)cc1)NO [tubacin] | – | – | larger FRET ratio | – |
